In ChEMBL document CHEMBL1201862, “PubChem BioAssay data set” (2004):
Activity calls are given as the source filed them.

Columns and labels:
Orexin receptor type 2 [1] = biological target: T1, Orexin receptor type 2 (Homo sapiens, UniProt O43614); experiment: Counterscreen assay for antagonists of the orexin 1 receptor (OX1R; HCRTR1): Fluorescence-based cell-based dose response assay for antagonists of the orexin 2 receptor (OX2R; HCRTR2), run by assay provider.; assay type: functional
T1 sequence (O43614 whole entry): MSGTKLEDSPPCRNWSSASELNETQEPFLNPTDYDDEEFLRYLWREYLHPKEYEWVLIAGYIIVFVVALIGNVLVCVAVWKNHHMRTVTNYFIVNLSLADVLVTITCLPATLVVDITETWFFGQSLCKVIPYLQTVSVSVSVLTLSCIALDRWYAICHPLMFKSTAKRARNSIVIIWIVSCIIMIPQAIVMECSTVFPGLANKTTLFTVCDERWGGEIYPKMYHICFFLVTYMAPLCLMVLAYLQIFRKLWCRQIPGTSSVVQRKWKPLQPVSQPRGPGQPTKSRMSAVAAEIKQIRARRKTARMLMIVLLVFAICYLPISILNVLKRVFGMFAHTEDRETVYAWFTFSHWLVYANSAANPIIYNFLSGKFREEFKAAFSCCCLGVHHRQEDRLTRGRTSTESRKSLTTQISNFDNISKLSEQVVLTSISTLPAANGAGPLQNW

[2] = biological target: T2, Orexin/Hypocretin receptor type 1 (Homo sapiens, UniProt O43613); experiment: Homogeneous Time Resolved Fluorescence (HTRF)-based cell-based high throughput dose response assay for antagonists of the orexin 1 receptor (OX1R; HCRTR1). [Related pubchem assays (depositor defined):AID434989, AID435008, AID463079, AID485270, AID492963, AID492964, AID492965, AID493232, AID504717, AID504718]; assay type: functional
T2 sequence (O43613 whole entry): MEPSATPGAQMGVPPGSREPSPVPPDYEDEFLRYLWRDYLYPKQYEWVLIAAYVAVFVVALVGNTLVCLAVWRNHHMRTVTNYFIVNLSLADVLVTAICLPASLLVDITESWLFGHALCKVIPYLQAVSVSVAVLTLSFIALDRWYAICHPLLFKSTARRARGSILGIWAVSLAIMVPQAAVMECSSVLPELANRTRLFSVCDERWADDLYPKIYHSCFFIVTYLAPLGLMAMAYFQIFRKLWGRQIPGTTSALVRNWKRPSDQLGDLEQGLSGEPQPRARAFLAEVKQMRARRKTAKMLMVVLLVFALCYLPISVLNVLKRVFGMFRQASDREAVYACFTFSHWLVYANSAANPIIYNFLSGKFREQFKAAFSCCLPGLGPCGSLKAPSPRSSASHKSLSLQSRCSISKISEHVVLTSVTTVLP

[3] = biological target: T2, Orexin/Hypocretin receptor type 1; experiment: Fluorescence-based cell-based high throughput dose response assay for antagonists of the orexin 1 receptor (OX1R; HCRTR1). [Related pubchem assays (depositor defined):AID434989, AID435008, AID463079, AID485270, AID492963, AID492964, AID492965, AID493232, AID504717, AID504718]; assay type: functional
Orexin receptor type 2 [4] = biological target: T1, Orexin receptor type 2; experiment: Counterscreen assay for antagonists of the orexin 1 receptor (OX1R; HCRTR1): Homogeneous Time Resolved Fluorescence (HTRF)-based cell-based dose response assay for antagonists of the orexin 2 receptor (OX2R; HCRTR2), run by assay provider.; assay type: functional
[5] = (§1) Counterscreen for antagonists of the orexin 1 receptor (OX1R; HCRTR1): Fluorescence-based cell-based high throughput dose response assay to identify antagonists of the parental CHO cell line. [Related pubchem assays (depositor defined):AID434989, AID435008, AID463079, AID485270, AID492963, AID492964, AID492965, AID493232, AID504699, AID504701]; assay type: functional
CHO-K1 = experiment: as §1, with “Homogeneous time resolved fluorescence (HTRF)-based” for “Fluorescence-based”, “cell-based” for “cell-based high throughput”, “CHO-K1” for “CHO”; assay type: functional; conditions: Cricetulus griseus;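 also: potency for inhibition of ATP-stimulated IP1 production as antagonists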
[6] = biological target: T3, Ubiquitin-conjugating enzyme E2 N (Homo sapiens, UniProt P61088); assay type: functional
T3 sequence (P61088 whole entry): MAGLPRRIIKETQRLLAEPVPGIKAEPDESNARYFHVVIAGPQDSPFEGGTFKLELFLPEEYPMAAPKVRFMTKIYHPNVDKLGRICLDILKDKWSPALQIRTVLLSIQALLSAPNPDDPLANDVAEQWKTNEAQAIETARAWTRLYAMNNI

[7] = biological target: T4, Zinc finger protein mex-5 (Caenorhabditis elegans, UniProt Q9XUB2); experiment: potency of MEX-5 RNA-binding blockers – biochemical, C. elegans, fluorescence polarization, dose response (AID 1960)
T4 sequence (Q9XUB2 whole entry): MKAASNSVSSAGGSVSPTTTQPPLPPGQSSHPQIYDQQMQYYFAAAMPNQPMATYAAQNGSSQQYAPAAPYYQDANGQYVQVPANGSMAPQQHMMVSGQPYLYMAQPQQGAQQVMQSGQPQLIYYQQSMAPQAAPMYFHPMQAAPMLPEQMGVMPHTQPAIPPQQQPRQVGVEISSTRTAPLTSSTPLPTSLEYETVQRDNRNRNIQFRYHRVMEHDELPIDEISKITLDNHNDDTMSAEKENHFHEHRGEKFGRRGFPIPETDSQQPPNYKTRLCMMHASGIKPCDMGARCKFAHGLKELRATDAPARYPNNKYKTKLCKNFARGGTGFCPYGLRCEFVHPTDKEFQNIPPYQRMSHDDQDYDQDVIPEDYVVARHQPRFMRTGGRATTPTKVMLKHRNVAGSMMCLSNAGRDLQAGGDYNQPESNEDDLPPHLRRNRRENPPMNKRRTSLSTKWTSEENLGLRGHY

[8] = biological target: T5, RNA-binding protein pos-1 (Caenorhabditis elegans, UniProt G5EF15); experiment: disruptors of C. elegans POS-1 RNA interaction – biochemical, fluorescence polarization, dose response (AID 1964);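 also: purified POS-1 fused to maltose binding protein made in E. coli; potency of compounds blocking POS-1 binding to fluorescent RNA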
T5 sequence (G5EF15 whole entry): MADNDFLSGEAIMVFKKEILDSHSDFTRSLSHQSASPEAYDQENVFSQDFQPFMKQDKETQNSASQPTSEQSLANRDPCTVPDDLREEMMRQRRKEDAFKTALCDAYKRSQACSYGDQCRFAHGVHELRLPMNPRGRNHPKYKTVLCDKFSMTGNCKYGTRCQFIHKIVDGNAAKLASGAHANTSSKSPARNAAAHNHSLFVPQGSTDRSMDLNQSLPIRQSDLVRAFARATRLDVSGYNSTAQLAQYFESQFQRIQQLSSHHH

[9] = biological target: T6, Polyadenylate-binding protein 1 (Homo sapiens, UniProt P11940); experiment: MLLE binding blockers, Cy5 peptide tracer – biochemical, fluorescence polarization, Cy5-PAM2 peptide, secondary, miRNA deadenylation inhibitor project, dose response (AID 602260); assay type: functional; conditions: read-out: IC50_Mean
[10] = biological target: T6, Polyadenylate-binding protein 1; experiment: MLLE domain peptide-binding blockers, IC50 – biochemical, fluorescence polarization, FITC-PAM2 peptide, dose response (AID 602259); assay type: functional; conditions: read-out: IC50_Mean
[11] = biological target: T7, Rac GTPase-activating protein 1 (Homo sapiens, UniProt Q9H0H5); experiment: blockers of MgcRacGAP-driven Rac1 GTP hydrolysis – biochemical, ADP Hunter fluorescence, primary and confirmatory, confirmation (AID 624330); assay type: functional
T7 sequence (Q9H0H5 whole entry): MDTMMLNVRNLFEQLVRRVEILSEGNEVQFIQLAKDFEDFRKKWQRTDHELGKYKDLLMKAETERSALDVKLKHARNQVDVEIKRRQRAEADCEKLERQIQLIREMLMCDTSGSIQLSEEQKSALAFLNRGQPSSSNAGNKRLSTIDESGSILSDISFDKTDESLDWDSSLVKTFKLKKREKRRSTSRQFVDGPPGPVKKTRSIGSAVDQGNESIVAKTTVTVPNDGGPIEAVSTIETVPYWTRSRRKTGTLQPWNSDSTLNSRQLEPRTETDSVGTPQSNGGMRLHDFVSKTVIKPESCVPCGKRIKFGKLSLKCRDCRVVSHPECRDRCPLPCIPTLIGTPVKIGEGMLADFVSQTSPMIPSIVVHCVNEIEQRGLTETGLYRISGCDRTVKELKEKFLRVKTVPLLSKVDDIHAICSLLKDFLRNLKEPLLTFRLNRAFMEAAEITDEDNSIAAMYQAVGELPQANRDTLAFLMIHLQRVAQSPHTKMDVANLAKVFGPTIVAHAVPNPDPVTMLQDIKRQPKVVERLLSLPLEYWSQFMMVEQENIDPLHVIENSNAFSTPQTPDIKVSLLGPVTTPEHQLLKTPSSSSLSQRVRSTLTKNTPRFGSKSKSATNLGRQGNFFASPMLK

[12] = biological target: T3, Ubiquitin-conjugating enzyme E2 N; assay type: functional; remark: listed apart in the source
Bcl-2-related protein A1 = biological target: T8, Bcl-2-related protein A1 (Mus musculus, UniProt Q07440); assay type: functional;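 also: confirmatory dose–response counterscreen on Bfl-1, used to check hits from a UBC13 polyubiquitin inhibitor campaign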
T8 sequence (Q07440 whole entry): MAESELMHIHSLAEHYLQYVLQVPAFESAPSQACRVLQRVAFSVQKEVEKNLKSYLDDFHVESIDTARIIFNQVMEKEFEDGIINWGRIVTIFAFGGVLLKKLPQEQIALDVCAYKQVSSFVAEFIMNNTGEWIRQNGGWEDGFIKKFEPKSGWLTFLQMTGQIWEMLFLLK

[13] = biological target: Adenosylmethionine-8-amino-7-oxononanoate aminotransferase (Mycobacterium tuberculosis, UniProt P9WQ81); experiment: Mycobacterium tuberculosis BioA enzyme inhibitor Measured in Biochemical System Using Plate Reader - 2163-02_Inhibitor_Dose_CherryPick_Activity.; assay type: functional, Mycobacterium tuberculosis UT205
[14] = biological target: DNA repair and recombination protein RAD54-like (Homo sapiens, UniProt Q92698); experiment: RAD54 Holliday junction migration blockers – biochemical, fluorescence, cherry-picked samples, dose series, confirmation (AID 651657); assay type: functional
Sequence of DNA repair and recombination protein RAD54-like (Q92698 whole entry): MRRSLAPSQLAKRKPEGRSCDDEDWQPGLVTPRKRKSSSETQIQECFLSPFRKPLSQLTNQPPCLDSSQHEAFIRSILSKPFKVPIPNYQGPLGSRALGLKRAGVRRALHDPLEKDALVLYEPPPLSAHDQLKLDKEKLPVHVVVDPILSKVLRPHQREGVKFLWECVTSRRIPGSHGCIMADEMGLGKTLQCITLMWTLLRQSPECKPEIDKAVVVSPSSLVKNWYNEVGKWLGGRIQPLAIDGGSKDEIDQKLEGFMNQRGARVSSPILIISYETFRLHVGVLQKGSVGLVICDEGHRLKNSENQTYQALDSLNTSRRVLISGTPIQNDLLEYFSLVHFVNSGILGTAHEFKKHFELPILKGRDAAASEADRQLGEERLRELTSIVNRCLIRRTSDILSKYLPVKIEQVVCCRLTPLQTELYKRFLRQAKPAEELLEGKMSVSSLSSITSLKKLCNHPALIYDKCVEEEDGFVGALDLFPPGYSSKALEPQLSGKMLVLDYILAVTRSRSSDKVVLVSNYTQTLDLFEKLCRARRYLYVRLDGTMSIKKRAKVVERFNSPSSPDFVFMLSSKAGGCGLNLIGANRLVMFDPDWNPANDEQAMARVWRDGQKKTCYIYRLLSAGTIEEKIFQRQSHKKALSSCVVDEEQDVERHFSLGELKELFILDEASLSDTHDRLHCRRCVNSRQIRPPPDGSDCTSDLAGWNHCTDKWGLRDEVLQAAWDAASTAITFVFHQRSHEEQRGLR

T6 sequence (P11940 whole entry, the tested form may be a part): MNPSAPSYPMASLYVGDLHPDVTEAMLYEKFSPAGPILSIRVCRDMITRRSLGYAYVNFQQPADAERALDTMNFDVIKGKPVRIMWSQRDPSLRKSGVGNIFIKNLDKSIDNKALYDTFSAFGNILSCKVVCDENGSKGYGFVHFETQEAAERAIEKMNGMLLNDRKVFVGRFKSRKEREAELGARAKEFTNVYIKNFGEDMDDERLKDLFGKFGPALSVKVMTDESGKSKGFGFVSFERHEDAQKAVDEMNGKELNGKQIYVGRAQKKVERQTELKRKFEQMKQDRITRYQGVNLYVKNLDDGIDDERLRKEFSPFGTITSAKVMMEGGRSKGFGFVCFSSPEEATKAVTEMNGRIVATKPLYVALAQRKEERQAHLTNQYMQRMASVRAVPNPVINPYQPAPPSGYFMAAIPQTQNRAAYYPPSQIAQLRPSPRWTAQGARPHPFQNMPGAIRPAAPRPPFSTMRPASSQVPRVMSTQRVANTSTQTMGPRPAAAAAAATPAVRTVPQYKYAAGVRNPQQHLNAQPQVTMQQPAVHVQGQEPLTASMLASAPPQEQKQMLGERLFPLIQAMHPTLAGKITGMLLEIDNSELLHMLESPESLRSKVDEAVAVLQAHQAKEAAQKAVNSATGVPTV
Sequence of Adenosylmethionine-8-amino-7-oxononanoate aminotransferase (P9WQ81 whole entry): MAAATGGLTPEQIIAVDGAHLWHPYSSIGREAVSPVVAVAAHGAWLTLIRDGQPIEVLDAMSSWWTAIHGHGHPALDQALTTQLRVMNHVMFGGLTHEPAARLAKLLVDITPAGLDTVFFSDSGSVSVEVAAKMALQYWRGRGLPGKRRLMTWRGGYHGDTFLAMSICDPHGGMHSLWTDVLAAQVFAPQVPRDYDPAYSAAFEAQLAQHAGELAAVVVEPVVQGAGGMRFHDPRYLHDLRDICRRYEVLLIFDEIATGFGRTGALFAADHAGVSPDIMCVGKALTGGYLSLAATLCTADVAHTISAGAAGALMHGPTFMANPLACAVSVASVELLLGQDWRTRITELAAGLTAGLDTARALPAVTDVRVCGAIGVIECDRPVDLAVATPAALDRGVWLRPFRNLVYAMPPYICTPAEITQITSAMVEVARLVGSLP

Row | Structure (SMILES) | IC50 (Orexin receptor type 2 [1]) | IC50 [2] | IC50 [3] | IC50 (Orexin receptor type 2 [4]) | IC50 [5] | IC50 (CHO-K1) | also measured
1 | COC(=O)C1=C(c2ccccc2OCc2ccccc2)C[C@@H]2CC[C@H]1N2C(=O)NCCOc1ccccc1Cl | 3.9 µM (active) | 3.71 µM (active) | > 16.6 µM (inactive) | > 50 µM (inactive) | 48.6 µM (inactive) | > 66.2 µM (inactive) | 
2 | Oc1ccc(NC(=S)N=Nc2c(O)[nH]c3ccccc23)cc1 | > 88.8 µM (inactive) | 3.24 µM (active) | 43.6 µM (inactive) | > 50 µM (inactive) | > 49.8 µM (inactive) | > 66.2 µM (inactive) | IC50 [6]: 2.17 µM (active); EC50 [7]: 3.98 µM (active); EC50 [8]: 16.3 µM (active); IC50 [9]: > 66 µM (inactive); IC50 [10]: > 66 µM (inactive); IC50 [11]: 21.5 µM (active); IC50 [12]: 0.763 µM (active); IC50 (Bcl-2-related protein A1): > 20 µM (inactive)
3 | CN1c2ccc(-c3cccc(F)c3)cc2[C@H]2[C@H](CCN2C(=O)C2CC2)[C@H]1CO |  |  |  |  |  |  | AC50 [13]: 0.134 µM (active)
4 | O=c1c2ccccc2oc2ccc(NCCCN3CCOCC3)cc12 |  |  |  |  |  |  | AC50 [14]: 34.2 µM (active)
